These results are taken from US12311044B2, “Antimicrobial composition” (priority 2018, dated 2025).

The test system of the test is total salivary bacterial pool (mixed oral bacteria). As to the kind of experiment: Malodour assay using lead acetate paper (H2S production by pooled salivary bacteria). Particulars: pooled human saliva bacteria OD 0.4, 96 well plate, incubated overnight, ΔE of lead acetate paper; actives at the weight % of the composition. Format: cell-based. Also noted: concentration or dose not given beside the values. The method, then: Malodour Assay Using Lead Acetate Paper:
The following tests were done to find out the efficacy of different compositions inside and outside the scope of the present invention:
The early morning saliva from different volunteer (5 samples) were pooled and centrifuged (Eppendorf refrigerated centrifuge 5810R at 6300 rcf/11.5 G) for 10 minutes. After that, the Supernatant which is saliva and the pellet—mixed bacterial pool (oral bacteria e.g. Streptococcus. mitis, Streptococcus. mutans, Nisseria. flava, Rothia. dentocariosa etc.,) was separated. The saliva was then filter sterilized by passing through the 50 mL conical 0.2 μm PES sterile filter (VWR lab products limited). The OD of total salivary bacterial pool culture was adjusted to 0.4 by spectrophotometer (Shimadzu UV Spectrophotometer—UV-1800) for higher pool of bacteria which is required for the assay. The assay was set up in a 96 well plate with respective culture control and DMSO control. The total reaction volume was 200 μL/well which comprises of the following: 45 μl 0.1% L-cysteine-HCl (Sigma, C1276)+TSB (Bacto, 211825, 30 g/L)+50 μL sterile Saliva+75 μL Culture+30 μL active (as per the weight % disclosed in the following table 2)+sterile distilled water.
Then the actives at desired concentration were added and the remaining volume was adjusted with sterile distilled water. After that, the wells were mixed well, and lead acetate filter was placed above the wells to capture the H2S released by the bacteria. […] The intensity of the spots was measured using a LAB reader (Minolta spectrophotometer CM 2600D). The colour reading was expressed in LAB, L* defines lightness, A* denotes the red/green value and B* the yellow/blue value. Then ΔL, ΔA and ΔB is calculated using this formula ΔL=L control−L sample, ΔA=L control−L sample, AB=L control−L sample. The total colour difference which is expressed as ΔE is calculated using this formula ΔE=√{square root over (((ΔL)^2+(ΔA)^2+(ΔB)^2))}. […] The total fold change of H2S inhibition over the control was calculated for the individual actives.
With `C=CCc1ccc(O)c(-c2ccc(O)c(CC=C)c2)c1` [B, honokiol], the “Fold Change (total fold change of H2S inhibition over the control)” value is 1.6 ± 1.8. With `CC(O)CN(CCN(CC(C)O)CC(C)O)CC(C)O` (stereo not drawn) [Example A, tetrahydroxypropyl ethylenediamine] the figure was 0.9±0.3; with `C=CCc1ccc(O)c(-c2ccc(O)c(CC=C)c2)c1` [C, honokiol], 1.5 ± 1.8.
